Activity calls are given as the source filed them. The rule behind the calls is not given here.
How the values were obtained:
Candida albicans [1] = assay: Antifungal activity against Candida albicans infected in guinea pig at 10 mg/kg, po qd; format: functional, organism-based; parameters: dose 10 mg/kg
Candida albicans [2] = assay: Antifungal activity against Candida albicans assessed as lowest dose required to total inhibition of fungal growth; format: functional
Phialophora verrucosa = assay: Antifungal activity against Phialophora verrucosa assessed as lowest dose required to total inhibition of fungal growth; format: functional
Streptococcus pyogenes = assay: Antibaterial activity against Streptococcus pyogenes assessed as lowest dose required to total inhibition of bacterial growth; format: functional
Candida tropicalis = assay: Antifungal activity against Candida tropicalis assessed as lowest dose required to total inhibition of fungal growth; format: functional
[3] = test system: Staphylococcus haemolyticus; assay: Antibaterial activity against Staphylococcus haemolyticus assessed as lowest dose required to total inhibition of bacterial growth; format: functional
[4] = test system: Trichophyton mentagrophytes; assay: Antifungal activity against Trichophyton mentagrophytes assessed as lowest dose required to total inhibition of fungal growth; format: functional
Cryptococcus neoformans = assay: Antifungal activity against Cryptococcus neoformans assessed as lowest dose required to total inhibition of fungal growth; format: functional
Trichophyton rubrum = assay: Antifungal activity against Trichophyton rubrum assessed as lowest dose required to total inhibition of fungal growth; format: functional
Saprolegnia = assay: Antifungal activity against Saprolegnia species assessed as lowest dose required to total inhibition of fungal growth; format: functional
Mucor = assay: Antifungal activity against Mucor species assessed as lowest dose required to total inhibition of fungal growth; format: functional
[5] = test system: Erysipelothrix rhusiopathiae; assay: Antibaterial activity against Erysipelothrix insidiosa assessed as lowest dose required to total inhibition of bacterial growth; format: functional
Microsporum canis = assay: Antifungal activity against Microsporum canis assessed as lowest dose required to total inhibition of fungal growth; format: functional
Aspergillus fumigatus = assay: Antifungal activity against Aspergillus fumigatus assessed as lowest dose required to total inhibition of fungal growth; format: functional
Sporothrix schenckii = assay: Antifungal activity against Sporothrix schenckii assessed as lowest dose required to total inhibition of fungal growth; format: functional

In the case of `Fc1ccc(OCCC(Cn2ccnc2)c2ccc(Cl)cc2Cl)cc1.O=C(O)C(=O)O` (stereo unspecified), the Activity (Candida albicans [1]) is reported as “Active”, the GI (Candida albicans [2]) is reported as 10 µg/mL and the GI (Phialophora verrucosa) is reported as 100 µg/mL. The GI (Streptococcus pyogenes) was 1 µg/mL, the GI (Candida tropicalis) was greater than 100 µg/mL and the GI [3] was 10 µg/mL. It also gave a GI [4] of less than 1 µg/mL, a GI (Cryptococcus neoformans) of less than 1 µg/mL and a GI (Trichophyton rubrum) of less than 1 µg/mL. It also gave a GI (Saprolegnia) of 10 µg/mL, a GI (Mucor) of 100 µg/mL and a GI [5] of less than 1 µg/mL. It also gave a GI (Microsporum canis) of 10 µg/mL, a GI (Aspergillus fumigatus) of 100 µg/mL and a GI (Sporothrix schenckii) of 10 µg/mL.
For `Clc1ccc(C(CCOc2ccccc2Cl)Cn2ccnc2)c(Cl)c1.O=C(O)C(=O)O` (stereo unspecified), the Activity (Candida albicans [1]) was “inactive”, the GI (Candida albicans [2]) was greater than 100 µg/mL and the GI (Phialophora verrucosa) was 100 µg/mL. The GI (Streptococcus pyogenes) was less than 1 µg/mL, the GI (Candida tropicalis) was greater than 100 µg/mL and the GI [3] was 1 µg/mL. For the same molecule, the GI [4] was less than 1 µg/mL, the GI (Cryptococcus neoformans) was less than 1 µg/mL and the GI (Trichophyton rubrum) was less than 1 µg/mL. The GI (Saprolegnia) was 100 µg/mL, the GI (Mucor) was greater than 100 µg/mL and the GI [5] was less than 1 µg/mL. It also gave a GI (Microsporum canis) of 10 µg/mL, a GI (Aspergillus fumigatus) greater than 100 µg/mL and a GI (Sporothrix schenckii) of 10 µg/mL.
For `Clc1ccc(OCCC(Cn2ccnc2)c2ccc(Cl)cc2Cl)c(Cl)c1.O=C(O)C(=O)O` (stereo unspecified), the Activity (Candida albicans [1]) was “Active”, the GI (Candida albicans [2]) was 100 µg/mL and the GI (Phialophora verrucosa) was 100 µg/mL. The GI (Streptococcus pyogenes) was less than 1 µg/mL, the GI (Candida tropicalis) was greater than 100 µg/mL and the GI [3] was 1 µg/mL. The GI [4] was less than 1 µg/mL, the GI (Cryptococcus neoformans) was less than 1 µg/mL and the GI (Trichophyton rubrum) was less than 1 µg/mL. The GI (Saprolegnia) was 100 µg/mL, the GI (Mucor) was 100 µg/mL and the GI [5] was less than 1 µg/mL. It also gave a GI (Microsporum canis) of 10 µg/mL, a GI (Aspergillus fumigatus) of 100 µg/mL and a GI (Sporothrix schenckii) of 100 µg/mL.
With `Clc1ccc(C(CCOc2ccccc2)Cn2ccnc2)c(Cl)c1.O=C(O)C(=O)O` (stereo unspecified) the Activity (Candida albicans [1]) was “inactive”, the GI (Candida albicans [2]) was 10 µg/mL and the GI (Phialophora verrucosa) was 100 µg/mL. The GI (Streptococcus pyogenes) was 1 µg/mL, the GI (Candida tropicalis) was 100 µg/mL and the GI [3] was 10 µg/mL. The GI [4] was less than 1 µg/mL, the GI (Cryptococcus neoformans) was less than 1 µg/mL and the GI (Trichophyton rubrum) was less than 1 µg/mL. For the same molecule, the GI (Saprolegnia) was 100 µg/mL, the GI (Mucor) was 100 µg/mL and the GI [5] was 1 µg/mL. It also gave a GI (Microsporum canis) of 10 µg/mL, a GI (Aspergillus fumigatus) of 100 µg/mL and a GI (Sporothrix schenckii) of 10 µg/mL.
With `Clc1ccc(C(CCCOc2ccc(Br)cc2)Cn2ccnc2)c(Cl)c1.O=C(O)C(=O)O` (stereo unspecified) the Activity (Candida albicans [1]) was “inactive”, the GI (Candida albicans [2]) was greater than 100 µg/mL and the GI (Phialophora verrucosa) was 100 µg/mL. It also gave a GI (Streptococcus pyogenes) of less than 1 µg/mL, a GI (Candida tropicalis) greater than 100 µg/mL and a GI [3] of 10 µg/mL. It also gave a GI [4] of less than 1 µg/mL, a GI (Cryptococcus neoformans) of 10 µg/mL and a GI (Trichophyton rubrum) of 10 µg/mL. For the same molecule, the GI (Saprolegnia) was 100 µg/mL, the GI (Mucor) was greater than 100 µg/mL and the GI [5] was less than 1 µg/mL. It also gave a GI (Microsporum canis) of 100 µg/mL, a GI (Aspergillus fumigatus) greater than 100 µg/mL and a GI (Sporothrix schenckii) of 100 µg/mL.
`Clc1ccc(OCCCC(Cn2ccnc2)c2ccc(Cl)cc2Cl)cc1.O=C(O)C(=O)O` (stereo unspecified) was tested, and the Activity (Candida albicans [1]) was “inactive”, the GI (Candida albicans [2]) was greater than 100 µg/mL and the GI (Phialophora verrucosa) was 100 µg/mL. The GI (Streptococcus pyogenes) was less than 1 µg/mL, the GI (Candida tropicalis) was greater than 100 µg/mL and the GI [3] was 1 µg/mL. It also gave a GI [4] of less than 1 µg/mL, a GI (Cryptococcus neoformans) of 10 µg/mL and a GI (Trichophyton rubrum) of less than 1 µg/mL. It also gave a GI (Saprolegnia) of 10 µg/mL, a GI (Mucor) greater than 100 µg/mL and a GI [5] of less than 1 µg/mL. The GI (Microsporum canis) was 10 µg/mL, the GI (Aspergillus fumigatus) was 100 µg/mL and the GI (Sporothrix schenckii) was less than 1 µg/mL.
For `Clc1ccc(C(CCOc2ccccc2Br)Cn2ccnc2)c(Cl)c1.O=C(O)C(=O)O` (stereo unspecified), the GI (Candida albicans [2]) was greater than 100 µg/mL, the GI (Phialophora verrucosa) was 100 µg/mL and the GI (Streptococcus pyogenes) was less than 1 µg/mL. For the same molecule, the GI (Candida tropicalis) was greater than 100 µg/mL, the GI [3] was 10 µg/mL and the GI [4] was less than 1 µg/mL. For the same molecule, the GI (Cryptococcus neoformans) was less than 1 µg/mL, the GI (Trichophyton rubrum) was less than 1 µg/mL and the GI (Saprolegnia) was 100 µg/mL. For the same molecule, the GI (Mucor) was greater than 100 µg/mL, the GI [5] was less than 1 µg/mL and the GI (Microsporum canis) was 100 µg/mL. For the same molecule, the GI (Aspergillus fumigatus) was greater than 100 µg/mL and the GI (Sporothrix schenckii) was 10 µg/mL.
Work on `Clc1ccc(OCCC(Cn2ccnc2)c2ccc(Cl)cc2Cl)cc1.O=[N+]([O-])O` (stereo unspecified) yielded a GI (Candida albicans [2]) of 10 µg/mL, a GI (Phialophora verrucosa) of 100 µg/mL and a GI (Streptococcus pyogenes) of less than 1 µg/mL. The GI (Candida tropicalis) was greater than 100 µg/mL, the GI [3] was 1 µg/mL and the GI [4] was less than 1 µg/mL. The GI (Cryptococcus neoformans) was less than 1 µg/mL, the GI (Trichophyton rubrum) was less than 1 µg/mL and the GI (Saprolegnia) was 10 µg/mL. For the same molecule, the GI (Mucor) was 10 µg/mL, the GI [5] was less than 1 µg/mL and the GI (Microsporum canis) was 10 µg/mL. The GI (Aspergillus fumigatus) was 100 µg/mL and the GI (Sporothrix schenckii) was 10 µg/mL.
In the case of `Clc1ccc(C(COc2ccccc2Cl)Cn2ccnc2)c(Cl)c1.O=[N+]([O-])O` (stereo unspecified), the GI (Candida albicans [2]) is reported as 100 µg/mL, the GI (Phialophora verrucosa) is reported as 100 µg/mL and the GI (Streptococcus pyogenes) is reported as less than 1 µg/mL. For the same molecule, the GI (Candida tropicalis) was greater than 100 µg/mL, the GI [3] was 1 µg/mL and the GI [4] was less than 1 µg/mL. For the same molecule, the GI (Cryptococcus neoformans) was less than 1 µg/mL, the GI (Trichophyton rubrum) was less than 1 µg/mL and the GI (Saprolegnia) was 100 µg/mL. The GI (Mucor) was greater than 100 µg/mL, the GI [5] was less than 1 µg/mL and the GI (Microsporum canis) was 10 µg/mL. The GI (Aspergillus fumigatus) was 100 µg/mL and the GI (Sporothrix schenckii) was 10 µg/mL.
`Clc1ccc(COC(Cn2ccnc2)c2ccc(Cl)cc2Cl)c(Cl)c1` (stereo unspecified) [MICONAZOLE] was tested, and the GI (Candida albicans [2]) was 10 µg/mL, the GI (Phialophora verrucosa) was 100 µg/mL and the GI (Streptococcus pyogenes) was less than 1 µg/mL. It also gave a GI (Candida tropicalis) of 100 µg/mL, a GI [3] of 10 µg/mL and a GI [4] of less than 1 µg/mL. The GI (Cryptococcus neoformans) was 1 µg/mL, the GI (Trichophyton rubrum) was less than 1 µg/mL and the GI (Saprolegnia) was 10 µg/mL. It also gave a GI (Mucor) greater than 100 µg/mL, a GI [5] of less than 1 µg/mL and a GI (Microsporum canis) of 1 µg/mL. It also gave a GI (Aspergillus fumigatus) of 10 µg/mL and a GI (Sporothrix schenckii) of 1 µg/mL.
